In patent US20220322673A1, “Novel Agrochemical Combinations” (UPL LIMITED, priority 2019, published 2022):
Like-named read-outs stand apart in the source and are kept apart here.

Assays:
Assay type in all cases: in vivo
[1] = tested on: Okra Aphids (Aphis gossypii); conditions: for Percent control (%) of Okra Aphids, Nymphs + Adults, A01: A01 = 1 day after first spray; for Percent control (%) of Okra Aphids, Nymphs + Adults, A10: A10 (after 1st spray); for Percent control (%) of Okra Aphids, Nymphs + Adults, B03: B03 = 3 days after 2nd spray; for Percent control (%) of Okra Aphids, Nymphs + Adults, B07: B07 (after 2nd spray); for Percent control (%) of Okra Aphids, Nymphs + Adults, B10: B10 (after 2nd spray); for Percent control (%) of Okra Aphids, Nymphs + Adults, C03: C03 = 3 days after third spray; for Percent control (%) of Okra Aphids, Nymphs + Adults, C10: C10 (after third spray)
From the text: (§1) In this evaluation, feeding damage & insect population on Okra Leaves before and after sprays is averaged and analyzed for the test of significance. Application method: Three applications (application A, B and C) within an interval of 14 days.

[2] = tested on: Okra Jassids (Amrasca bigutulla bigutulla); conditions: for Percent control (%) of Okra Jassids, Nymphs + Adults, A01: A01 = 1 day after first spray; for Percent control (%) of Okra Jassids, Nymphs + Adults, A10: A10 (after 1st spray); for Percent control (%) of Okra Jassids, Nymphs + Adults, B03: B03 = 3 days after 2nd spray; for Percent control (%) of Okra Jassids, Nymphs + Adults, B07: B07 (after 2nd spray); for Percent control (%) of Okra Jassids, Nymphs + Adults, B10: B10 (after 2nd spray); for Percent control (%) of Okra Jassids, Nymphs + Adults, B14: B14 (after 2nd spray); for Percent control (%) of Okra Jassids, Nymphs + Adults, C03: C03 = 3 days after third spray; for Percent control (%) of Okra Jassids, Nymphs + Adults, C10: C10 (after third spray)
From the text: as §1

[3] = tested on: Okra Mites; experiment: Trials on controlling Okra Mites post 2nd and 3rd application (Example 2); conditions: doses gm/ha: OSA 625 + Flonicamid 50 / Acetamipirid 50 / Lancer Gold 650, solo OSA 1250, Flonicamid 75, Acetamipirid 50, Lancer gold 650; for Percent control Mean: Mean of B07, C-01, C-10
Description: Trials were conducted to test the efficacy of the combination of Flonicamid and Orthosilicic acid on controlling Okra Mites at different dosages post 2nd and 3rd application.

[4] = tested on: Okra Aphids; experiment: Trials of Flonicamid and Orthosilicic acid on controlling Okra Aphids (Example 1); conditions: doses gm/ha: OSA + Flonicamid 625 + 50, Flonicamid 75, OSA 1250
Description: Trials were conducted to test the efficacy of the combination of Flonicamid and Orthosilicic acid on controlling Okra Aphids at different dosages.

[5] = doses gm a.i./ha: OSA 25, Flonicamid 100, Acephate+Imidacloprid 520, Flonicamid+Fipronil 100+50, Imidacloprid 24.5, Acetamiprid 15
[6] = 25% reduced dose rate, gm a.i./ha: OSA 25, Flonicamid 75, Acephate+Imidacloprid 390, Flonicamid+Fipronil 75+37.5, Imidacloprid 18.3, Acetamiprid 11.2
[7] = reduced insecticide dose, gm a.i./ha: OSA 25, Flonicamid (Ulala) 75, Acephate+Imidacloprid 390, Flonicamid+Fipronil 75+37.5, Imidacloprid 18.3, Acetamiprid 11.2

Structure (SMILES) | Percent control (%) of Okra Aphids, Nymphs + Adults, A01 [1, 5] | Percent control (%) of Okra Aphids, Nymphs + Adults, A10 [1, 5] | Percent control (%) of Okra Aphids, Nymphs + Adults, B03 [1, 5] | Percent control (%) of Okra Aphids, Nymphs + Adults, B07 [1, 5] | Percent control (%) of Okra Aphids, Nymphs + Adults, B10 [1, 5] | Percent control (%) of Okra Aphids, Nymphs + Adults, C03 [1, 5] | Percent control (%) of Okra Aphids, Nymphs + Adults, C10 [1, 5] | Percent control (%) of Okra Jassids, Nymphs + Adults, A01 [2, 6] | Percent control (%) of Okra Jassids, Nymphs + Adults, A01 [2, 5] | Percent control (%) of Okra Jassids, Nymphs + Adults, A10 [2, 6] | Percent control (%) of Okra Jassids, Nymphs + Adults, A10 [2, 5] | Percent control (%) of Okra Jassids, Nymphs + Adults, B03 [2, 6] | Percent control (%) of Okra Jassids, Nymphs + Adults, B03 [2, 5] | Percent control (%) of Okra Jassids, Nymphs + Adults, B07 [2, 6] | Percent control (%) of Okra Jassids, Nymphs + Adults, B07 [2, 5] | Percent control (%) of Okra Jassids, Nymphs + Adults, B10 [2, 6] | Percent control (%) of Okra Jassids, Nymphs + Adults, B10 [2, 5] | Percent control (%) of Okra Jassids, Nymphs + Adults, B14 [2, 6] | Percent control (%) of Okra Jassids, Nymphs + Adults, B14 [2, 5] | Percent control (%) of Okra Jassids, Nymphs + Adults, C03 [2, 6] | also measured
N#CCNC(=O)c1cnccc1C(F)(F)F [Flonicamid, N-cyanomethyl-4-trifluoromethylnicotinamide] | 78.2% | 91.9% | 95.1% | 95.5% | 93% | 94.7% | 94.9% | 71.2% | 74.8% | 85.8% | 89.3% | 82% | 90.7% | 89.3% | 93.3% | 91.5% | 94.2% | 87.4% | 89.3% | 90.2% | Percent control (%) of Okra Jassids, Nymphs + Adults, C03 [2, 5]: 93.3%; Percent control (%) of Okra Jassids, Nymphs + Adults, C10 [2, 6]: 92.5%; Percent control (%) of Okra Jassids, Nymphs + Adults, C10 [2, 5]: 94.4%; Percent control B07 [3]: 31.8%; Percent control C-01 [3]: 39.5%; Percent control C-10 [3]: 34.0%; Percent control Mean [3]: 35.1%; Percent control B01 ([4]; B01): 88.8%; Percent control C-01 ([4]; C-01): 91.8%; Percent control C-10 ([4]; C-10): 96%; Percent control Mean ([4]; Mean of B01, C-01, C-10): 92.2%
C/C(=N\C#N)N(C)Cc1ccc(Cl)nc1 [Acetamipirid, Acetamiprid] | 71.1% | 86.1% | 86.8% | 86.7% | 85% | 87.4% | 87.6% | 59.3% | 66.4% | 64.4% | 72.4% | 68.8% | 73.9% | 70.9% | 76.7% | 71.3% | 76.9% | 66.6% | 70.9% | 69.5% | Percent control (%) of Okra Aphids, Nymphs + Adults, A01 [1, 7]: 64.8%; Percent control (%) of Okra Aphids, Nymphs + Adults, A14 ([1]; A14 = 14 days after 1st spray, reduced insecticide dose, gm a.i./ha: OSA 25, Flonicamid (Ulala) 75, Acephate+Imidacloprid 390, Flonicamid+Fipronil 75+37.5, Imidacloprid 18.3, Acetamiprid 11.2): 74.7%; Percent control (%) of Okra Aphids, Nymphs + Adults, B03 [1, 7]: 79.7%; Percent control (%) of Okra Aphids, Nymphs + Adults, B07 [1, 7]: 81.8%; Percent control (%) of Okra Aphids, Nymphs + Adults, B10 [1, 7]: 82.5%; Percent control (%) of Okra Aphids, Nymphs + Adults, C03 [1, 7]: 86.9%; Percent control (%) of Okra Aphids, Nymphs + Adults, C10 [1, 7]: 86.5%; Percent control (%) of Okra Jassids, Nymphs + Adults, C03 [2, 5]: 74.8%; Percent control (%) of Okra Jassids, Nymphs + Adults, C10 [2, 6]: 70.7%; Percent control (%) of Okra Jassids, Nymphs + Adults, C10 [2, 5]: 79.3%; Percent control B07 [3]: 24.6%; Percent control C-01 [3]: 26.9%; Percent control C-10 [3]: 22.2%; Percent control Mean [3]: 24.56%
